In patent US12390423B2 (priority 2019, dated 2025):

How the values were obtained:
C2C12 myotubes [1] = assay: Mitochondrial ROS (MitoSOX) and membrane potential (JC-1) in C2C12 myotubes; assay type: cell-based, mouse; conditions: 25 μM AvoB, 0.5 mM palmitate, 24 h
Experimental: For all ROS studies, INS-1 (832/13) cells and C2C12 myotubes were treated with or without palmitate and FAO inhibitors for 24 h in low glucose cell culture media as described for the FAO assay. After treatment, cells were trypsinized and re-suspended in PBS containing 5 μM of the fluorescent dye MitoSOX® (Molecular Probes, Invitrogen) and allowed to incubate for 5-15 minutes in a humidified atmosphere containing 5% CO2 at 37° C. Cells were then washed in PBS, placed in a 96 well plate and fluorescence was measured by flow cytometry. ROS was quantified by normalizing the mean fluorescence values of live gated cells to vehicle control. Mitochondrial membrane potential (MMP) in INS-1 (832/13) and C2C12 myotubes was measured using the cationic fluorescent dye JC-1 (Molecular Probes). […] JC-1 fluoresces green in the cytosol where it exists as a monomer, after entering the mitochondria JC-1 monomers form J aggregates and fluoresce red, thus the red/green fluorescence ratio is used to determine MMP. […] Cells were then washed in PBS, placed in a 96 well plate and fluorescence was measured by flow cytometry. MMP was quantified by normalizing the mean fluorescence values of live gated cells to vehicle control. […] Cells were treated, washed and collected as described and incubated with 0.35 μM NAO and green fluorescence was measured using flow cytometry. […]

[2] = tested on: pyruvate dehydrogenase (PDH); assay: Pyruvate dehydrogenase (PDH) activity assay, gastrocnemius muscle lysates of DIO mice; assay type: in vivo, C57BL/6J mice; conditions: ad libitum HFD mice, AvoB 100 mg/kg b.w. twice weekly, endpoint
Experimental: After mice were euthanized, muscle tissues were freeze-clamped and flash-frozen in liquid nitrogen. The PDH activity from flash-frozen whole gastrocnemius muscle lysates was measured using a colorimetric microplate assay kit (ab109902, Abcam, Cambridge, MA, USA) following the manufacturer's protocol and as previously described (see reference number 12). Briefly, PDH proteins from whole gastrocnemius muscle lysates (lysed in the presence of 10 mM sodium fluoride (NaF) preserve the phosphorylated status of PDH or to determine native PDH activity as a result of HFD feeding) were immunocaptured on a microplate by loading equal amounts of protein for each sample. PDH activity was then determined spectrophotometrically by monitoring the reduction of NAD+ to NADH, coupled to the reduction of a reporter dye at an absorbance of 450 nm.

C2C12 myotubes [3] = assay: Fatty acid oxidation ([1-14C]-palmitate) in C2C12 myotubes; assay type: cell-based, mouse; conditions: 25 μM AvoB, 0.5 mM palmitate-BSA/1 mM L-carnitine, 24 h
Experimental: FAO in cell lines was determined using established methods. […] [1-^14C]-palmitate was prepared and applied to cells as follows: purchased stock supplied in ethanol (PerkinElmer, MA, USA) was dried in vacuo and then re-suspended in a solution containing unlabeled carrier in BSA to yield a mixture of 7% BSA [w/v], 2.5 mM palmitate with [1-^14C]-palmitate at a final concentration of 10 μCi/mL. Following a 16 hour incubation at 37° C., the solution containing radiolabeled palmitate was diluted with respective serum free cell culture media (low glucose RPMI media for INS-1 (832/13) cells and low glucose DMEM for C2C12 myotubes) containing 1 mM L-carnitine to a final concentration of 0.3% BSA, 100 μM palmitate, and 0.4 μCi/mL [1-^14C]-palmitate. Following incubation of treated cells with [1-^14C]-palmitate, 400 μL of well media was transferred to acidification vials containing perchloric acid and capped with CO2 filter traps impregnated with 1M NaOH. […] The CO2 trap was transferred to scintillation vials containing 4 mL of scintillation fluid and complete FAO was quantified using a Tri-Carb 2910 TR liquid scintillation analyzer (PerkinElmer). The amount of radioactivity in the media was also determined after pelleting cells and debris (14,000×g, 10 min); this quantified acid soluble metabolites (ASMs), an indirect measure of incomplete FAO.

[4] = Treatment model of diet-induced obesity (DIO) in mice: body and fat pad weights; assay type: in vivo, C57BL/6J mice; conditions: HFD mice, AvoB 100 mg/kg b.w. oral gavage twice weekly for 5 weeks, vs HFD-control
Experimental: For the treatment study, twelve-week-old male C57BL/6J mice were purchased from Jackson Laboratory (Bar Harbor, ME) and allowed to acclimatize for 1 week. After acclimatization, mice received either a high-fat diet (HFD) (60% kcal from lard; Research Diet D12492; Research Diets, USA) or a standard diet (10-13% kcal from fat; Teklad 2014; Envigo, USA) for eight weeks. […] Animal weights were monitored twice weekly. At study completion, animals were euthanized (10-12 h into their dark cycle) via CO2 followed by exsanguination, after which tissue and blood was collected.

## avocatin B [AvoB]
C2C12 myotubes [1]
  Mitochondrial membrane potential (MMP, JC-1): lowers palmitate induced increases
  Mitochondrial superoxide levels (MitoSOX Red): lowers palmitate induced increases in mitochondrial superoxide levels
[2]
  Native PDH activity in gastrocnemius muscle: restored to that of lean, STD mice
C2C12 myotubes [3]
  Complete FAO ([1-14C]-palmitate oxidation to CO2): inhibited complete FAO
  Incomplete FAO (ASM levels): did not increase incomplete FAO
[4]
  Gonadal and mesenteric fat pad (GFP and MFP) weights: reductions in both gonadal and mesenteric fat pad (GFP and MFP) weights
  Mouse weight at study completion: weighed significantly less than HFD-control mice
